From paper PMC3098219, “Protective Efficacy of Serially Up-Ranked Subdominant CD8^+ T Cell Epitopes against Virus Challenges” (PLoS Pathogens, 2011)

Tests used:
H-2K^d [1] = molecular target: T1, H-2K^d (Mus musculus, UniProt P01902); assay: T2 peptide binding assay, H-2K^d; conditions: Figure S2A, 100 µM to 0.01 µM peptide
Description: (§1) TAP2 ([…])-deficient T2 cell lines stably expressing D^d, K^d, and L^d molecules kindly provided by Dr. Ted Hansen (Washington university, U.S.A.) were used to assess the ability of MHCs to bind each peptide. In brief, 1×10^5 cells were incubated with 0/0.1/1.0/10/100 µM peptides in no-serum RPMI (R-0) for 14 h at 37°C, 5% CO2 in a flat-bottomed 96-well plate. 14 h later, cells were transferred to a round-bottomed 96-well plate and washed with PBS before staining the cells with anti-H-2K^d/H-2D^d-PE or anti-H-2L^d-PE (eBioscience) monoclonal antibodies. Cells were then analyzed on a FACS flow cytometer.
(§2) Supplementary file ppat.1002041.s002.pdf: Figure S2 T2 assays for peptide binding affinity for MHC class I. TAPdeficient T2 cell lines stably transformed with H-2Dd, H-2Kd or H-2Ld complexes were kindly provided by Dr Hansen, Washington University. Peptide-loaded MHC complexes were detected by fluorochrome-conjugated mAb (DB Biosciences) and the cells were analyzed using flow cytometer. […]
(§3) Supplementary Figure S2. […] Peptide-loaded MHC complexes were detected by fluorochrome-conjugated mAb (DB Biosciences) and the cells were analyzed using flow cytometer. […]

[2] = system: splenocytes of DNA-immunized mice; assay: IFN-γ ELISPOT and ICS with modified HIVA immunogens; format: cell-based, BALB/c mice; conditions: for recognition of altered peptides by splenocytes (IFN-γ): Figure 2A and B, mice immunized with dHmP and dHmPG1, respectively
Description: To further investigate this phenomenon, we serially inactivated CD8^+ T cell epitopes in the order of their immunodominance. To maintain the HIVA protein integrity, epitopes P and G1 were mutated rather than deleted by substituting the anchor amino acid residues required for a strong binding to the H-2K^d molecule (Figure 2A). The resulting double and triple mutants of the HIVA immunogen were called dHmP and dHmPG1, respectively. […] Groups of BALB/c mice were immunized 2x using the modified HIVA immunogens vectored by plasmid DNA and the immune responses were measured in IFN-γ ELISPOT, ICS and in vivo killing assays. […] Second, consistently in all three assays, immune responses directed against subdominant epitopes were serially recovered, however, not to the same extent. […] Because the response to the G2 epitope remained undetectable even in the dHmPG1-immunized mice, overlapping 15/11 peptides across the whole HIVA immunogen were used again to search for another yet unidentified epitope of a higher rank. […] (Figure 2D). […] Thus, step-wise deletion of immunodominant CD8^+ T cell epitopes restores responses to the subdominant epitopes in the hierarchy.
Figure 2 Serial up-ranking of epitopes. A) Groups of 4 BALB/c mice were immunized 2x i.m. with 100 µg of DNA at a 2-wk interval. Two wk later, splenocytes were assessed in an ELISPOT assay for production of IFN-γ upon re-stimulation with peptides indicated above. Shown are schematic diagrams of HIVA and the three modified immunogens with representative examples of the ELISPOT well images. B) Mice were immunized as in A and 4 wk later, splenocytes were assessed in an ICS assay to measure CD8^+ T cells secreting IFN-γ upon re-stimulation with peptide indicated in the top left corner. Group means±SD are shown. C) Identical groups of mice were assessed for cytolytic activity in an in vivo lysis of syngeneic peptide-pulsed cells transferred into naïve or vaccinated animals. Representative examples of dot plots are shown (top) and the peptide-specific lyses are expressed as a group mean±SD (bottom). D) Groups of 3 BALB/c mice were immunized 3x with 100 µg of DNA indicated above the dot plot in 2-wk intervals and the designated NPP peptide-specific responses were assessed by IFN-γ ICS 2 wk later. The FACS plots are representative examples with IFN-γ producing cells as a percentage of CD8^+ splenocytes shown in the top right panels. All experiments were repeated at least once. TEXT PRINTED IN THE PICTURE: (D) HIVA: 0.05 | (D) HIVAdH: 0.09 | (D) dHmP: 0.08 | (D) dHmPG1: 0.57 DOUBTS OF THE COPYIST ABOUT THIS PICTURE: Panel D: the numbers in the top right quadrants of the CD8 / IFN-γ dot plots are printed without a measure or unit, so they are copied as bare numbers.
The ELISPOT assay was performed using the Mouse IFN-γ ELISpot kit (Mabtech) according to the manufacturer's instructions. Spots were visualised using sequential applications of a biotin-conjugated secondary anti-IFN-γ mAb (R4-6A2, Rat IgG1), an alkaline phosphatase and a chromogenic substrate (Bio-Rad) and counted using the AID ELISpot Reader System (Autoimmun Diagnostika).

[3] = system: H-2D^d, H-2K^d or H-2L^d complexes; assay: T2 peptide binding assay, respective MHC class I complexes; conditions: Figure 3A; TAP-deficient T2 cells, 100 µM to 0.1 µM peptide, 14 h at 37°C, FACS
Description: Figure 3 Contributing mechanisms of immunodominance. […] T2 cell lines were incubated with decreasing peptide concentrations ranging from 100 µM to 0.1 µM indicated above the H peptide histogram and the cell surface peptide-loaded MHC complexes were detected by fluorochrome-conjugated mAb (DB Biosciences) and quantified using FACS flow cytometer. B) and C) Groups of 3 BALB/c mice were given 3x immunizations using 100 µg of DNA expressing the index or mutated forms of HIVA at 3 wk intervals and their T cell responses were analyzed 4 wk later. B) Splenocytes were assessed in an ICS assay using peptides indicated above the graphs at concentrations ranging from 10 to 10^−8 µM for 5 h. Cells were gated on IFN-γ-producing CD8^+ T cell populations positive (top) or negative (bottom) for CD107a/b. Note the different y-axis scales on the top and bottom graphs. C) The response kinetics of CD8^+ T cells re-stimulated with 0.1 µM peptides was assessed in an ICS assay in 1-h intervals for a period of 4 h. Data shown are as mean±SD of [CD8^+CD107a/b^+IFN-γ^+ cells at each time point (%)] ÷ [CD8^+CD107a/b^+IFN-γ^+ at 4 h (%)]. One out of two independent experiments is shown.
as §1

CD8^+ T cells = assay: Immunodominance hierarchy of T cell responses to HIVA-derived epitopes; format: cell-based, BALB/c mice; conditions: 10 d after immunization
[4] = system: CD8^+ splenocytes of DNA-immunized mice; assay: ICS T cell avidity (peptide titration, CD107a/b and IFN-γ); format: cell-based, BALB/c mice; conditions: for peak IFN-γ^+CD107a/b^+CD8^+ cell frequencies at 10 µM peptide: Figure 3B, individual determinants when dominant: H in group HIVA, P in HIVAdH, G1 in dHmP, NPP in dHmPG1, 3x 100 µg DNA, 5 h
Description: T2 cell lines were incubated with decreasing peptide concentrations ranging from 100 µM to 0.1 µM indicated above the H peptide histogram and the cell surface peptide-loaded MHC complexes were detected by fluorochrome-conjugated mAb (DB Biosciences) and quantified using FACS flow cytometer. B) and C) Groups of 3 BALB/c mice were given 3x immunizations using 100 µg of DNA expressing the index or mutated forms of HIVA at 3 wk intervals and their T cell responses were analyzed 4 wk later. B) Splenocytes were assessed in an ICS assay using peptides indicated above the graphs at concentrations ranging from 10 to 10^−8 µM for 5 h. Cells were gated on IFN-γ-producing CD8^+ T cell populations positive (top) or negative (bottom) for CD107a/b. Note the different y-axis scales on the top and bottom graphs. C) The response kinetics of CD8^+ T cells re-stimulated with 0.1 µM peptides was assessed in an ICS assay in 1-h intervals for a period of 4 h. Data shown are as mean±SD of [CD8^+CD107a/b^+IFN-γ^+ cells at each time point (%)] ÷ [CD8^+CD107a/b^+IFN-γ^+ at 4 h (%)]. One out of two independent experiments is shown.
We also measured avidities of T cell responses recovered through the sequential HIVA epitope up-ranking. First, responsiveness of immune splenocytes following 3 plasmid DNA deliveries was measured in an ICS assay upon re-stimulation with peptide concentrations ranging from 10^−8 to 10 µM for 5 h (Figure 3A).

[5] = system: syngeneic peptide-pulsed cells; assay: In vivo lysis assay, epitope hierarchy with boost vector and time; design: species or system BALB/c mice; conditions: for epitope hierarchy at 100 d: Figure 5, DNA-DNA (pTH.HIVA) regimen, 100 d after last vaccination
[6] = system: H-2D^d and H-2L^d molecules; conditions: ref [31], [33]; cited from earlier work
Description: (§4) Our research interests lie in development of the T cell component of HIV-1 vaccines stimulating protective CD8^+ T cell responses. The first-generation T cell immunogen, designated HIVA (Figure 1A), has served as an extremely useful tool for iterative improving of CD8^+ T cell induction by experimental vaccines in mice, non-human primates and humans [reviewed in [30]]. To increase the power of T cell analysis and study the role of subdominant determinants, H-2^d class I-restricted epitopes contained in the HIVA immunogen were mapped in detail. Thus, the most immunodominant epitope of ...

H-2D^d = H-2D^d (Mus musculus, UniProt P01900); assay: T2 peptide binding assay, H-2D^d; conditions: Figure S2B, 100 µM to 0.01 µM peptide
Chain of H-2D^d (P01900 whole entry, looked up): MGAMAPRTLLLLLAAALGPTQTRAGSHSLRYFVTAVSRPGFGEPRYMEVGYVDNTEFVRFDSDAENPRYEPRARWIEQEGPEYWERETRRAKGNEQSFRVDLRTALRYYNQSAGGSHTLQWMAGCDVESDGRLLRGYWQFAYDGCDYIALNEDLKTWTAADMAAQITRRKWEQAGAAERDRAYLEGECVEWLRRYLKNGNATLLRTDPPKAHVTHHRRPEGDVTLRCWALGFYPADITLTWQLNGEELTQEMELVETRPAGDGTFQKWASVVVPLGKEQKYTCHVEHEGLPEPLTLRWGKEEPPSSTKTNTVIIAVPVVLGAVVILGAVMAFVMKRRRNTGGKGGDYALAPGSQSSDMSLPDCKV
Description: as §1, §2, §3

H-2L^d = H-2L^d (Mus musculus, UniProt P01897); assay: T2 peptide binding assay, H-2L^d; conditions: Figure S2B, 100 µM to 0.01 µM peptide
Chain of H-2L^d (P01897 whole entry, looked up): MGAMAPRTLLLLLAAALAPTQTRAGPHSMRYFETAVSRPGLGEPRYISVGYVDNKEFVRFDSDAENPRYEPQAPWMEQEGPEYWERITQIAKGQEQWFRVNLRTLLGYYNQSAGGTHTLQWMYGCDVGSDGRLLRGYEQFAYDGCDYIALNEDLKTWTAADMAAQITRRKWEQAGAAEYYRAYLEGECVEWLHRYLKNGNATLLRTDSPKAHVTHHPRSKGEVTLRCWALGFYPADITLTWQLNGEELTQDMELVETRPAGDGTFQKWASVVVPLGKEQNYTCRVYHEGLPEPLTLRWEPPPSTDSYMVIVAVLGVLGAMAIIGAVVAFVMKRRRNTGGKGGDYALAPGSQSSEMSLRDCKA
Description: as §1, §2, §3

[7] = system: CD8^+ splenocytes of immunized mice; format: cell-based, BALB/c mice; conditions: HIVAdH vs HIVA immunization; ex vivo ICS, Figure 1D
[8] = system: syngeneic peptide-pulsed cells; assay: in vivo killing assay (lysis of syngeneic peptide-pulsed cells); design: species or system BALB/c mice; conditions: HIVAdH vaccinated relative to HIVA vaccination; Figure 1F
H-2K^d [9] = molecular target: T1, H-2K^d; conditions: ref [34]; cited from earlier work
Description: as §4

T1 sequence (P01902 whole entry, looked up): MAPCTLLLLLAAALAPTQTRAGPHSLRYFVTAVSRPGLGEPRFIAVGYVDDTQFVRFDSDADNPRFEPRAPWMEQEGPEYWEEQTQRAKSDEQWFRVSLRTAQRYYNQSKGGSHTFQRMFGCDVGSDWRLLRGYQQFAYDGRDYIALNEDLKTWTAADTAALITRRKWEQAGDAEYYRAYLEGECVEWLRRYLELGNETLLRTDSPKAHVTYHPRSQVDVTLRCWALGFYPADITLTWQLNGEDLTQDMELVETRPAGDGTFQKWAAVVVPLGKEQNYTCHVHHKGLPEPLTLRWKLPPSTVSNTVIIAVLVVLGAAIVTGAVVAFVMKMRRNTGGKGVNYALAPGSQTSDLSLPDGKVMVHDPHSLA

AMEFLKDTA [altered G1 peptide]
binding to H-2K^d (H-2K^d [1]): unable to bind
recognition of altered peptides by splenocytes (IFN-γ) [2]: unable to recognize

RGPGRAFVTI [H]
peptide binding affinities for respective MHC class I [3]: directly correlated with the immunodominance hierarchy
hierarchy of T cell responses against HIVA-derived epitopes (CD8^+ T cells): H>P>>G1>NPP>>G2
IFN-γ response in non-degranulating IFN-γ^+CD107a/b^−CD8^+ cells ([4]; Figure 3B bottom, following HIVA vaccination, low, but significant): 0.65 % of total CD8^+ cells
peak IFN-γ^+CD107a/b^+CD8^+ cell frequencies at 10 µM peptide [4]: 3.2 % of total CD8^+ splenocytes
epitope hierarchy at 100 d [5]: no longer dominated the anti-HIVA response
epitope hierarchy at 28 d ([5]; double or triple DNA prime-boost regimen, 28 d post vaccination): the strongest at 28 d post vaccination
MHC class I restriction (H-2D^d and H-2L^d) [6]: restricted by H-2D^d and H-2L^d molecules

NPPIPVGDIYKRWIILGLNK
T cell response to peptide in epitope search ([2]; dHmPG1-immunized mice, overlapping 15/11 peptides across HIVA): a response was detected

NPPIPVGDI
restriction / binding to H-2D^d (H-2D^d): restricted by H-2D^d and H-2L^d
restriction / binding to H-2L^d (H-2L^d): restricted by H-2D^d and H-2L^d
hierarchy of T cell responses against HIVA-derived epitopes (CD8^+ T cells): H>P>>G1>NPP>>G2
peak IFN-γ^+CD107a/b^+CD8^+ cell frequencies at 10 µM peptide [4]: 0.8 % of total CD8^+ splenocytes

IFQSSMTKI [P]
frequencies of IFN-γ-producing CD8^+ cells [7]: noticeably, though not significantly increased
in vivo lysis of peptide-pulsed targets [8]: increased in vivo lysis
peptide binding affinities for respective MHC class I [3]: directly correlated with the immunodominance hierarchy
hierarchy of T cell responses against HIVA-derived epitopes (CD8^+ T cells): H>P>>G1>NPP>>G2
peak IFN-γ^+CD107a/b^+CD8^+ cell frequencies at 10 µM peptide [4]: 3.3 % of total CD8^+ splenocytes
epitope hierarchy at 100 d [5]: replaced by T cells specific for peptide P

TTSTLQEQI [G2, Gag residues 239–247]
frequencies of IFN-γ-producing CD8^+ cells [7]: undetectable
peptide binding affinities for respective MHC class I [3]: directly correlated with the immunodominance hierarchy
hierarchy of T cell responses against HIVA-derived epitopes (CD8^+ T cells): H>P>>G1>NPP>>G2
restoration of G2-specific response ([2]; immunization with dHmPG1 vaccine): failed to restore the G2-specific response
MHC class I restriction (H-2K^d) (H-2K^d [9]): H-2K^d-restricted

IFGSSMTKA [altered P peptide]
binding to H-2K^d (H-2K^d [1]): unable to bind
recognition of altered peptides by splenocytes (IFN-γ) [2]: unable to recognize
